Source: patent US5646316A, “Bile acid inhibitors of metalloproteinase enzymes” (OsteoArthritis Sciences, Inc., priority 1995, dated 1997)
Read-outs that look alike come from different tables or passages of the source.

Assays:
chondrocytes = assay: Chondrocyte Cell Culture Matrix Breakdown Assay (35S release, rhIL-1α stimulated); assay type: cell-based, calf; settings: Bos taurus, Chondrocyte; for inhibition at 50 µM: read-out: percent inhibition, Cell Culture
Experimental: A cell culture assay was used to measure the ability of compounds to slow the degradation of the extracellular matrix by a metalloproteinase. This assay measured the amount ^35 S released from chondrocytes grown in a media with ^35 S labeled sodium sulfate. The cell culture assay was carried out as follows:
Two or three 1 to 3 week old calf joints were obtained from an abattoir. The proximal end of the shank was at about 4-5" long to facilitate immobilization in the holder. The joint was kept cool and transported on ice. The exterior of the intact joints was washed well with a suitable anti-microbial soap, rinsed clean with warm water, rinsed in betadine and then finally rinsed with 70% ethanol. Up to this point all steps were done in a manner to ensure that the joint was kept as clean as possible. All subsequent steps were performed in a sterile field (i.e., in a Edgeguard laminar flow tissue culture hood). The joint was immobilized and the synovial fluid was aspirated with a needle and syringe. The joint was then cut open to expose the articular cartilage using a #21 scalpel. Using locking hemostats, forceps and a #15 scalpel, the cartilage was excised in full thickness pieces. Care was taken not to cut too deep because bleeding would have occurred if the subchondral bone, was penetrated. The cartilage pieces were placed into a 50 mL centrifuge tube containing 25 mL of Delbecco's phosphate buffered saline (D-PBS) supplemented with 1% antibiotic solution (penicillin, streptomycin and fungizone; GIBCO/BRL). The slices from each joint were then placed into separate 50 mL centrifuge tubes. The D-PBS was decanted and replaced with 25 mL of fresh D-PBS supplemented with antibiotics and subsequently agitated gently.
The cartilage pieces were transferred to a fresh 50 mL centrifuge tube and rinsed once more with 25 mL of D-PBS minus antibiotics. An enzymatic digestion solution containing 1 mg/mL of hyaluronidase in serum-free 1:1 DMEM/Ham's F-12 (DMEM/F12) was prepared. This solution was filter sterilized with […] Milex--GV filter and kept on ice until ready to use. The cartilage pieces were digested with approximately 5 mL of hyaluronidase solution per joint for 2×15 minutes at 37° C. in the 50 mL centrifuge tube with gentle agitation at the 15 minute mark. This procedure removed residual hyaluronic acid from the surface of the chips. The enzymatic digestion solution was then aspirated and the cartilage pieces were rinsed with 25 mL of D-PBS.
A second enzymatic digestion solution containing 2.5 mg trypsin and 2 mg collagenase P per mL serum-free DMEM/F12 was prepared. This solution was also filter sterilized with a […] Millex--GV filter and kept on ice until ready to use. The cartilage pieces were digested with approximately 5 mL of trypsin: collagenase solution per joint for 2×15 minutes at 37° C. in the 50 mL centrifuge tube with gentle agitation at the 15 minute mark. This procedure removed the synovial fibroblasts and any adherent connective tissue from the surface of the chips. The enzymatic digestion solution was then carefully removed and saved and the cartilage pieces were rinsed with 25 mL of D-PBS.
A third enzymatic solution containing 2 mgs of collagenase P (BMB) per mL serum-free DMEM/F12 was prepared. This solution was filter sterilized with a […] Millex--GV filter and kept on ice until ready to use. The pre-digested cartilage pieces were finally digested with approximately 20 mL of enzymatic digestion solution per joint for 5-6 hours at 37° C. in a Bellco stirring digestion flask, at which point the cartilage was fully digested away.
The enzymes in the synovial fibroblast and chondrocyte digest were neutralized by addition of an equal volume of DMEM/F12 supplemented with 5% fetal bovine serum. Fibroblasts were plated in DMEM at a cellular density of 6.6×10^3 cells per cm^2. […]

gelatinase (72 (Kd)) = target: T1, gelatinase (72 (Kd) (Homo sapiens, UniProt P08253)); assay: Assay of Gelatinase Inhibition Activity (72 Kd gelatinase); assay type: biochemical; settings: 60 minutes at 37° C.; for inhibition at 10 µM: at 10 μM of compound, read-out: percent inhibition of gelatinase
T1 sequence (P08253 110-660): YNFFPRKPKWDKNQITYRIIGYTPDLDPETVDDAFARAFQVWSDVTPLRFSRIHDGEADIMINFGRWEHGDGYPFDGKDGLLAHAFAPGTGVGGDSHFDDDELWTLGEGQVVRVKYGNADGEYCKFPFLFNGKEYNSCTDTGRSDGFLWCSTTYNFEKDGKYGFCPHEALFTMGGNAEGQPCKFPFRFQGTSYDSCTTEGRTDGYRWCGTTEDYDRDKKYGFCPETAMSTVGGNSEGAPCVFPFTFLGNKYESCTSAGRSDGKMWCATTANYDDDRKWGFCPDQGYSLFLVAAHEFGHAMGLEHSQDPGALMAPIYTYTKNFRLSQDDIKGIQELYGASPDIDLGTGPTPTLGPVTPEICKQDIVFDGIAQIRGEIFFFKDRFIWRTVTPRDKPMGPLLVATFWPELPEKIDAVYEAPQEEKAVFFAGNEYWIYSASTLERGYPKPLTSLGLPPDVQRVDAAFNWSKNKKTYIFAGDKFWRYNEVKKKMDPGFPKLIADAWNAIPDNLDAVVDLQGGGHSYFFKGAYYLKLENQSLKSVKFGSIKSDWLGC
Experimental: Stromelysin was first activated by trypsin. This was done by preparing a reaction mixture in B-150 (B-150 consists of 150 mM NaCl, 20 mM Tris at pH 7.8 and 0.02% sodium azide) containing a final concentration of 4 μg/mL trypsin, 1.48 μg/mL of stromelysin, and 3.15 mM CaCl2. The reaction was incubated for 30 minutes at 37° C. and then quenched by adding soybean trypsin inhibitor to a final concentration of 43.6 μg/mL. ZnCl2 was added to the reaction mixture for a total concentration of 0.24 μM.
Following preparation of the solution of activated stromelysin, assay solutions were prepared for each inhibitor being tested. A control was also prepared. First, […] of activated stromelysin (about 45 μL from the solution of activated stromelysin) were aliquotted per assay tube. A 2.5 mM solution in 100% dimethyl sulfoxide (DMSO) was prepared for each inhibitor being tested and 1 μL from each inhibitor solution was added to one of the assay tubes. In addition, 1 μL of 100% DMSO was added to the control assay tube. All assay tubes were then pre-incubated for 5 minutes.
5 μL of a previously prepared 50 μM solution of substrate in 15% DMSO were added to each assay tube. The substrate was a methoxycumarin developed by Knight et al. FEBS Lett. 296:263-66 (1992). The tubes were then incubated for 60 minutes, at which time the reaction was stopped with the addition of 750 μL of 0.1M NaAc pH 4.0 buffer.
Substrate hydrolysis was assessed by fluorescence using a slit width of 10:10, excitation at 328 nm and emission at 393 nm. The results of these assays are listed in Table I as percent inhibition at 10 μM of the bile acid provided compound tested or as the IC50.
The assay procedure for gelatinase (72 (Kd) was the same as described in Example 13 for stromelysin except that the trypsin activation was performed for 60 minutes. In addition, the incubation of the assay tubes at 37° C. was for 60 minutes, and the final enzyme concentration was 3 nm. The results of these assays are listed in Table I as percent inhibition at 10 μM of the compound tested.

[1] = at 50 μM, rhIL-1α 1 ng/ml, 22-24 hours

SMILES | inhibition at 10 µM (gelatinase (72 (Kd))) [%] | inhibition at 50 µM (chondrocytes; [1]) [%] | further results
C[C@H](CCC(=O)NCCC[N+](C)(C)CCCS(=O)(=O)[O-])[C@H]1CC[C@H]2[C@@H]3[C@H](O)C[C@@H]4C[C@H](O)CC[C@]4(C)[C@H]3C[C@H](O)[C@]12C [Compound 8, 3-[(3-cholamidopropyl)dimethylammonio)-1-propanesulfonate, reference compound] | – | – | inhibition at 50 µM (chondrocytes): 2%
CC(C)C[C@H](NC(=O)CC[C@@H](C)[C@H]1CC[C@H]2[C@@H]3[C@H](O)C[C@@H]4C[C@H](O)CC[C@]4(C)[C@H]3CC[C@]12C)C(=O)NO [Compound 10, Chenodeoxycholyl-(L)-Leucine Hydroxamic Acid] | 27 | – | IC50 (chondrocytes; rhIL-1α 1 ng/ml, 22-24 hours): 80 µM
C[C@H](CCC(=O)N[C@@H](Cc1ccccc1)C(=O)NC1CCSC1=O)[C@H]1CC[C@H]2[C@@H]3CC[C@@H]4C[C@H](O)CC[C@]4(C)[C@H]3CC[C@]12C (some centres unmarked) [Compound 20, Lithocholyl-Phenylalanylhomocysteine Thiolactone] | 30 | 16 | –
C[C@H](CCC(=O)N[C@@H](Cc1ccccc1)C(=O)NO)[C@H]1CC[C@H]2[C@@H]3[C@H](O)C[C@@H]4C[C@H](O)CC[C@]4(C)[C@H]3CC[C@]12C [Compound 16, Chenodeoxycholyl-(L)-Phenylalanine Hydroxamic Acid] | 23 | 85 | –
C[C@H](CCC(=O)O)[C@H]1CC[C@H]2[C@@H]3CC[C@@H]4C[C@H](O)CC[C@]4(C)[C@H]3CC[C@]12C [Compound 1, Lithocholic acid, reference compound] | – | 95 | –
C[C@H](CCC(=O)NO)[C@H]1CC[C@H]2[C@@H]3CC[C@@H]4C[C@H](O)CC[C@]4(C)[C@H]3CC[C@]12C [Compound 13, Lithocholylhydroxamic Acid] | – | – | IC50 (gelatinase (72 (Kd))): 8 µM; IC50 (chondrocytes; rhIL-1α 1 ng/ml, 22-24 hours): 20 µM
CC(C)C[C@H](NC(=O)CC[C@@H](C)[C@H]1CC[C@H]2[C@@H]3CC[C@@H]4C[C@H](O)CC[C@]4(C)[C@H]3CC[C@]12C)C(=O)NO [Compound 9, Lithocholyl-(L)-Leucine Hydroxamic Acid] | – | 43 | IC50 (gelatinase (72 (Kd))): 0.3 µM
C[C@H](CCC(=O)NOCc1ccccc1)[C@H]1CC[C@H]2[C@@H]3[C@H](O)C[C@@H]4C[C@H](O)CC[C@]4(C)[C@H]3CC[C@]12C [Compound 12, Chenodeoxycholyl-O-Benzylhyroxamate] | – | 64 | –
C[C@H](CCC(=O)N[C@@H](Cc1ccccc1)C(=O)NO)[C@H]1CC[C@H]2[C@@H]3CC[C@@H]4C[C@H](O)CC[C@]4(C)[C@H]3CC[C@]12C [Compound 15, Lithocholyl-(L)-Phenylalanine Hydroxamic Acid] | 47 | 38 | –
CCOC(=O)[C@H](CS)NC(=O)[C@H](Cc1ccccc1)NC(=O)CC[C@@H](C)[C@H]1CC[C@H]2[C@@H]3CC[C@@H]4C[C@H](O)CC[C@]4(C)[C@H]3CC[C@]12C [Compound 19, Lithocholyl-(L)-Phenylalanyl-(L)-Cysteine Ethyl Ester] | 47 | 4 | –
